Values after ≈ are worked out from the molar mass of the structure shown. Values belong to the molecule of their own block, whether it stands above or below them.
Legend:
Assay in all cases: ≥ marks a high value that may be exact or a test limit, other limits are often not marked, values filed in µg/mL are converted to µM
[1] = test system: Streptococcus mutans UA140
[2] = test system: Streptococcus mutans comD
[3] = test system: Streptococcus gordonii DL1
[4] = test system: Streptococcus sanguinis ATCC 10556
[5] = test system: Streptococcus mutans ATCC 25175
[6] = test system: Streptococcus sanguinis NY101
Streptococcus mutans T8 = test system: Streptococcus mutans T8
[7] = test system: Streptococcus mutans ATCC 104495
[8] = test system: Streptococcus mutans UA159
[9] = test system: Streptococcus gordonii ATCC 10558
[10] = test system: Streptococcus salivarius K12
[11] = test system: Bacillus subtilis IFO 3336
[12] = test system: Escherichia coli IFO 3301
[13] = test system: Pseudomonas aeruginosa CCARM 2109
[14] = test system: Staphylococcus aureus CCARM 3543
[15] = test system: Pseudomonas aeruginosa KCTC 1637
[16] = test system: Staphylococcus epidermidis KCTC 1917
[17] = test system: Staphylococcus aureus CCARM 3001
[18] = test system: Escherichia coli KCTC 1682
[19] = test system: Pseudomonas aeruginosa CCARM 2095
[20] = test system: Bacillus subtilis KCTC 3068
[21] = test system: Staphylococcus aureus KCTC 1621
[22] = test system: Salmonella typhimurium KCTC 1926

MIC [1]: ≥ 33.3 µM
MIC [2]: 15.3 µM (≈ 30.5 µg/mL)
MIC [3]: ≥ 41.3 µM
MIC [4]: ≥ 50 µM
MIC [5]: 14.8 µM (≈ 29.5 µg/mL)
MIC [6]: ≥ 33.6 µM
MIC (Streptococcus mutans T8): 14.2 µM (≈ 28.3 µg/mL)
MIC [7]: ≥ 33.3 µM
MIC [8]: 12.1 µM (≈ 24.1 µg/mL)
MIC [9]: ≥ 50 µM
MIC [10]: 16.7 µM (≈ 33.3 µg/mL)
Compound: CC[C@H](C)[C@H](NC(=O)CNC(=O)[C@H](CCCCN)NC(=O)[C@H](CCCN=C(N)N)NC(=O)[C@@H](NC(=O)[C@@H](NC(=O)[C@H](CCCN=C(N)N)NC(=O)[C@H](CC(C)C)NC(=O)[C@H](CC(N)=O)NC(=O)[C@@H](N)CCCCN)[C@@H](C)CC)[C@@H](C)CC)C(=O)N[C@@H](Cc1cnc[nH]1)C(=O)N[C@H](C(=O)N[C@H](C(=O)N[C@@H](CCCCN)C(=O)N[C@@H](CCCCN)C(=O)N[C@@H](Cc1ccc(O)cc1)C(N)=O)[C@@H](C)CC)[C@@H](C)CC [KNLRIIRKGIHIIKKY]

Compound: NC(N)=NCCC[C@H](NC(=O)[C@H](Cc1cnc[nH]1)NC(=O)[C@H](CCCN=C(N)N)NC(=O)[C@H](Cc1cnc[nH]1)NC(=O)[C@H](CCCN=C(N)N)NC(=O)[C@H](Cc1cnc[nH]1)NC(=O)[C@H](CCCN=C(N)N)NC(=O)[C@H](Cc1cnc[nH]1)NC(=O)[C@H](CCCN=C(N)N)NC(=O)[C@@H](N)Cc1cnc[nH]1)C(=O)O [HRHRHRHRHR]
MIC [11]: 6.74 µM (≈ 10 µg/mL)
MIC [12]: 6.74 µM (≈ 10 µg/mL)

MIC [13]: ≥ 64 µM
MIC [14]: ≥ 32 µM
MIC [15]: 16 µM (≈ 24.2 µg/mL)
MIC [16]: ≥ 32 µM
MIC [17]: ≥ 64 µM
MIC [18]: ≥ 32 µM
MIC [19]: ≥ 64 µM
MIC [20]: ≥ 32 µM
MIC [21]: ≥ 32 µM
MIC [22]: ≥ 32 µM
Compound: CC(C)C[C@H](NC(=O)[C@H](CC(C)C)NC(=O)[C@H](Cc1c[nH]c2ccccc12)NC(=O)[C@H](CCCCN)NC(=O)[C@H](CC(C)C)NC(=O)[C@H](Cc1c[nH]c2ccccc12)NC(=O)[C@H](CC(C)C)NC(=O)[C@H](CC(C)C)NC(=O)[C@H](Cc1c[nH]c2ccccc12)NC(=O)[C@H](CC(C)C)NC(=O)[C@@H](N)CCCCN)C(N)=O [KLWLLWLKWLL]
